Experimental data published in US7829557B2, “2-heterosubstituted 3-aryl-4H-1-benzopyran-4-ones as novel therapeutics in breast cancer” (The Ohio State University Research Foundation, priority 2006, dated 2010).
Like-named read-outs stand apart in the source and are kept apart here.

How the values were obtained:
[1] = tested on: MCF-7 cells; test: Dose response / IC50 for effects on proliferation in MCF-7 cells; assay type: cell-based, human
Description: Several members of the combinatorial library that was prepared in accordance with the methods of this invention have been tested for effects on proliferation in MCF-7 cells and MDA-MB-231 cells.
Dose response studies were performed with compounds from the combinatorial library. Compounds 234, 220, 244, 230, 258, YWK-II-14 and 4-OH-Tamoxifen were performed.
IC50 ranges for several members of the combinatorial library were within 95% confidence intervals.

[2] = tested on: human breast cancer cell lines; test: Suppression of proliferation of human breast cancer cell lines; assay type: cell-based; settings: suppressing proliferation of human breast cancer cell lines; most potent of the series
Excerpt: Thus, we designed and synthesized several isoflavones containing a basic side chain connected through either an oxygen or a sulfur linkage (synthetic scheme—FIG. 9).

[3] = 95% confidence interval, no unit in this head, cell line taken from Example 5 (MCF-7), read-out: IC50 Range
[4] = from GraphPad Prism fit, read-out: IC50 (From Program)
[5] = midpoint and half-width of the IC50 range, read-out: IC50 ± ΔIC50

SMILES | IC50 [1, 3] | IC50 [1, 4] | IC50 [1, 5] | IC50 [2]
COc1ccc(-c2c(Sc3ccc(O)cc3)oc3cc(OCc4ccccc4)ccc3c2=O)cc1 [Compound 220] | 2.87 to 7.68 µM | 4.7 µM | 5.28 ± 2.4 µM | 
COc1ccc(-c2c(Oc3ccc(OCCN4CCCCC4)cc3)oc3cc(OCc4ccccc4)ccc3c2=O)cc1 [Compound 258] | 2.3 to 5.88 µM | 3.67 µM | 4.09 ± 1.79 µM | 
COc1ccc(-c2c(Oc3ccc(OCCN4CCCCC4)cc3)oc3cc(O)ccc3c2=O)cc1 [YWK-II-14] | ~6.31 µM | ~6.31 µM | ~6.31 µM | 
O=c1c(-c2ccc(O)cc2)c(Sc2ccc(O)cc2)oc2cc(O)ccc12 [Compound 244] | 7.86 to 15.7 µM | 11.1 µM | 11.8 ± 3.94 µM | 
COc1ccc(-c2c(Sc3ccc(OCCN4CCCCC4)cc3)oc3cc(OCc4ccccc4)ccc3c2=O)cc1 [Compound 230] | 2.41 to 7.23 µM | 4.17 µM | 4.82 ± 2.41 µM | 
COc1ccc(-c2c(Sc3ccc(OCCN4CCCCC4)cc3)oc3cc(O)ccc3c2=O)cc1 [Compound 234] | 0.36 to 0.92 µM | 0.58 µM | 0.64 ± 0.28 µM | 
CC/C(=C(\c1ccc(O)cc1)c1ccc(OCCN(C)C)cc1)c1ccccc1 [4-OH Tamoxifen, reference compound] | 3.61 to 4.93 µM | 4.22 µM | 4.27 ± 0.66 µM | 
COc1ccc(-c2c(Sc3ccc(OCCN4CCCCC4)cc3)oc3cc(O)ccc3c2=O)cc1 [Compound 310a] |  |  |  | 0.058 µM
